# Reference: patent US20090036448A1, “PYRIMIDINE DERIVATIVES AND METHODS OF TREATMENT RELATED TO THE USE THEREOF” (TAISHO PHARMECUTICAL CO., LTD., priority 2004, published 2009)
# Biological target: MCH receptor (Homo sapiens, UniProt Q99705)
# Assay: Receptor binding assay with Radiolabelled MCH Ligand
# Design: expressed in transfected cells; host or cells: 293 cells (human kidney, ATCC), transient transfection; crude membranes
# Conditions: class by percent of control at 10^-7 M or IC50
# Outline: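 Membranes from 293 cells transiently transfected with human MCH receptor competed test compounds against a radiolabelled MCH ligand in Tris-HCl pH 7.4 with MgCl2 and EDTA for 60–120 min at room temperature. Filtration and scintillation counting followed, with cold MCH defining nonspecific binding. IC50 came from logit-log plots of %B/B0, and Ki from the Cheng-Prusoff equation.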
# MCH receptor, sequence (Q99705 whole entry): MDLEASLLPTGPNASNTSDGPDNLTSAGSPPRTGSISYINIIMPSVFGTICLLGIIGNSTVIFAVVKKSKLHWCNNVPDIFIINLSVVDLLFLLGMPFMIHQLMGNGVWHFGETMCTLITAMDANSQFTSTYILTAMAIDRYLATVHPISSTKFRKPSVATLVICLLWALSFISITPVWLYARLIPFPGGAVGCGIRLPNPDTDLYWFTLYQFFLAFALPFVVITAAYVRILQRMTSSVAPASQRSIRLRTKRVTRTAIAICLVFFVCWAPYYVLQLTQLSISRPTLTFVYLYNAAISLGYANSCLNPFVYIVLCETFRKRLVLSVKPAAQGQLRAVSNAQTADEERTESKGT
row,SMILES,class
1,Cc1nc(N[C@H]2CC[C@@H](NCc3ccc(Br)cc3)CC2)cc(N(C)C)n1 [compound 358],3 (Class 3: The value of percent of control at 10^−7 M was more than 60% or the value of IC50 was more than 200 nM.)
2,Cc1nc(N[C@H]2CC[C@@H](NCCOCc3ccccc3)CC2)cc(N(C)C)n1 [compound 359],3 (Class 3: The value of percent of control at 10^−7 M was more than 60% or the value of IC50 was more than 200 nM.)
3,Cc1nc(N[C@H]2CC[C@@H](NCc3ccc(Cl)cc3)CC2)cc(N(C)C)n1 [compound 360],3 (Class 3: The value of percent of control at 10^−7 M was more than 60% or the value of IC50 was more than 200 nM.)
4,Cc1nc(N[C@H]2CC[C@@H](NCCOc3ccc(Cl)cc3)CC2)cc(N(C)C)n1 [compound 361],3 (Class 3: The value of percent of control at 10^−7 M was more than 60% or the value of IC50 was more than 200 nM.)
5,Cc1nc(N[C@H]2CC[C@@H](NCC3CC3)CC2)cc(N(C)C)n1 [compound 362],3 (Class 3: The value of percent of control at 10^−7 M was more than 60% or the value of IC50 was more than 200 nM.)
6,Cc1nc(N[C@H]2CC[C@@H](NCC3CCCCC3)CC2)cc(N(C)C)n1 [compound 363],3 (Class 3: The value of percent of control at 10^−7 M was more than 60% or the value of IC50 was more than 200 nM.)
7,Cc1nc(N[C@H]2CC[C@@H](NCCc3ccc(Cl)cc3)CC2)cc(N(C)C)n1 [compound 364],3 (Class 3: The value of percent of control at 10^−7 M was more than 60% or the value of IC50 was more than 200 nM.)
8,Cc1nc(N[C@H]2CC[C@@H](NCC3(c4ccc(Cl)cc4)CCCC3)CC2)cc(N(C)C)n1 [compound 365],3 (Class 3: The value of percent of control at 10^−7 M was more than 60% or the value of IC50 was more than 200 nM.)
9,Cc1nc(N[C@H]2CC[C@@H](NCc3c(-c4c(F)cccc4Cl)noc3C)CC2)cc(N(C)C)n1 [compound 366],3 (Class 3: The value of percent of control at 10^−7 M was more than 60% or the value of IC50 was more than 200 nM.)
10,Cc1nc(N[C@H]2CC[C@@H](NCc3scc(S(=O)(=O)c4ccc(Cl)cc4)c3C)CC2)cc(N(C)C)n1 [compound 367],3 (Class 3: The value of percent of control at 10^−7 M was more than 60% or the value of IC50 was more than 200 nM.)
11,Cc1nc(N[C@H]2CC[C@@H](NCc3ccc(N(C)C)cc3)CC2)cc(N(C)C)n1 [compound 368],3 (Class 3: The value of percent of control at 10^−7 M was more than 60% or the value of IC50 was more than 200 nM.)
12,Cc1nc(N[C@H]2CC[C@@H](NCc3ccc(F)c(F)c3)CC2)cc(N(C)C)n1 [compound 369],3 (Class 3: The value of percent of control at 10^−7 M was more than 60% or the value of IC50 was more than 200 nM.)
13,COc1ccc(CN[C@H]2CC[C@@H](Nc3cc(N(C)C)nc(C)n3)CC2)cc1OC [compound 370],3 (Class 3: The value of percent of control at 10^−7 M was more than 60% or the value of IC50 was more than 200 nM.)
14,CCOc1ccc(CN[C@H]2CC[C@@H](Nc3cc(N(C)C)nc(C)n3)CC2)cc1 [compound 371],3 (Class 3: The value of percent of control at 10^−7 M was more than 60% or the value of IC50 was more than 200 nM.)
15,Cc1nc(N[C@H]2CC[C@@H](NCc3ccc(F)cc3)CC2)cc(N(C)C)n1 [compound 372],3 (Class 3: The value of percent of control at 10^−7 M was more than 60% or the value of IC50 was more than 200 nM.)
16,Cc1nc(N[C@H]2CC[C@@H](NCc3ccco3)CC2)cc(N(C)C)n1 [compound 373],3 (Class 3: The value of percent of control at 10^−7 M was more than 60% or the value of IC50 was more than 200 nM.)
17,Cc1nc(N[C@H]2CC[C@@H](NCc3ccno3)CC2)cc(N(C)C)n1 [compound 374],3 (Class 3: The value of percent of control at 10^−7 M was more than 60% or the value of IC50 was more than 200 nM.)
18,Cc1nc(N[C@H]2CC[C@@H](NCc3ccccc3I)CC2)cc(N(C)C)n1 [compound 375],3 (Class 3: The value of percent of control at 10^−7 M was more than 60% or the value of IC50 was more than 200 nM.)
19,Cc1nc(N[C@H]2CC[C@@H](NCc3nn(-c4ccccc4)nc3C)CC2)cc(N(C)C)n1 [compound 376],3 (Class 3: The value of percent of control at 10^−7 M was more than 60% or the value of IC50 was more than 200 nM.)
20,COc1ccc(Oc2ccc([N+](=O)[O-])cc2CN[C@H]2CC[C@@H](Nc3cc(N(C)C)nc(C)n3)CC2)cc1 [compound 377],3 (Class 3: The value of percent of control at 10^−7 M was more than 60% or the value of IC50 was more than 200 nM.)
21,Cc1nc(N[C@H]2CC[C@@H](NCc3ccc4ccccc4c3)CC2)cc(N(C)C)n1 [compound 378],3 (Class 3: The value of percent of control at 10^−7 M was more than 60% or the value of IC50 was more than 200 nM.)
22,Cc1nc(N[C@H]2CC[C@@H](NCc3cccc([N+](=O)[O-])c3)CC2)cc(N(C)C)n1 [compound 379],3 (Class 3: The value of percent of control at 10^−7 M was more than 60% or the value of IC50 was more than 200 nM.)

row,SMILES,class
1,Cc1nc(N[C@H]2CC[C@@H](NCc3cnn(-c4ccc([N+](=O)[O-])cc4)c3C(F)(F)F)CC2)cc(N(C)C)n1 [compound 380],3 (Class 3: The value of percent of control at 10^−7 M was more than 60% or the value of IC50 was more than 200 nM.)
2,Cc1nc(N[C@H]2CC[C@@H](NCCOc3ccccc3)CC2)cc(N(C)C)n1 [compound 381],3 (Class 3: The value of percent of control at 10^−7 M was more than 60% or the value of IC50 was more than 200 nM.)
3,Cc1nc(N[C@H]2CC[C@@H](NCCc3ccccc3)CC2)cc(N(C)C)n1 [compound 382],3 (Class 3: The value of percent of control at 10^−7 M was more than 60% or the value of IC50 was more than 200 nM.)
4,Cc1nc(N[C@H]2CC[C@@H](NCC3C[C@H]3c3ccccc3)CC2)cc(N(C)C)n1 (stereo partly shown) [compound 383],3 (Class 3: The value of percent of control at 10^−7 M was more than 60% or the value of IC50 was more than 200 nM.)
5,Cc1nc(N[C@H]2CC[C@@H](NCc3cnn(-c4ccccc4)c3C(F)(F)F)CC2)cc(N(C)C)n1 [compound 384],3 (Class 3: The value of percent of control at 10^−7 M was more than 60% or the value of IC50 was more than 200 nM.)
6,Cc1nc(N[C@H]2CC[C@@H](NCCOc3ccccc3[N+](=O)[O-])CC2)cc(N(C)C)n1 [compound 385],3 (Class 3: The value of percent of control at 10^−7 M was more than 60% or the value of IC50 was more than 200 nM.)
7,Cc1nc(N[C@H]2CC[C@@H](NCc3cccc(C(F)(F)F)c3)CC2)cc(N(C)C)n1 [compound 386],3 (Class 3: The value of percent of control at 10^−7 M was more than 60% or the value of IC50 was more than 200 nM.)
8,Cc1ccc(CN[C@H]2CC[C@@H](Nc3cc(N(C)C)nc(C)n3)CC2)cc1 [compound 387],3 (Class 3: The value of percent of control at 10^−7 M was more than 60% or the value of IC50 was more than 200 nM.)
9,Cc1nc(N[C@H]2CC[C@@H](NCc3cccs3)CC2)cc(N(C)C)n1 [compound 388],3 (Class 3: The value of percent of control at 10^−7 M was more than 60% or the value of IC50 was more than 200 nM.)
10,Cc1nc(N[C@H]2CC[C@@H](NCCOc3c(F)c(F)c(F)c(F)c3F)CC2)cc(N(C)C)n1 [compound 389],3 (Class 3: The value of percent of control at 10^−7 M was more than 60% or the value of IC50 was more than 200 nM.)
11,COc1ccc(CCN[C@H]2CC[C@@H](Nc3cc(N(C)C)nc(C)n3)CC2)cc1OC [compound 390],3 (Class 3: The value of percent of control at 10^−7 M was more than 60% or the value of IC50 was more than 200 nM.)
12,Cc1nc(N[C@H]2CC[C@@H](NCCSc3ccccc3)CC2)cc(N(C)C)n1 [compound 391],3 (Class 3: The value of percent of control at 10^−7 M was more than 60% or the value of IC50 was more than 200 nM.)
13,Cc1nc(N[C@H]2CC[C@@H](NCc3cccc4c3-c3ccccc3C4=O)CC2)cc(N(C)C)n1 [compound 392],3 (Class 3: The value of percent of control at 10^−7 M was more than 60% or the value of IC50 was more than 200 nM.)
14,Cc1nc(N[C@H]2CC[C@@H](NCc3ccc(OC(F)(F)F)cc3)CC2)cc(N(C)C)n1 [compound 393],3 (Class 3: The value of percent of control at 10^−7 M was more than 60% or the value of IC50 was more than 200 nM.)
15,Cc1nc(N[C@H]2CC[C@@H](NCc3ccc(F)cc3C(F)(F)F)CC2)cc(N(C)C)n1 [compound 394],3 (Class 3: The value of percent of control at 10^−7 M was more than 60% or the value of IC50 was more than 200 nM.)
16,Cc1nc(N[C@H]2CC[C@@H](NCCc3ccc(F)cc3)CC2)cc(N(C)C)n1 [compound 395],3 (Class 3: The value of percent of control at 10^−7 M was more than 60% or the value of IC50 was more than 200 nM.)
17,CCCCCCCOc1ccc(CN[C@H]2CC[C@@H](Nc3cc(N(C)C)nc(C)n3)CC2)cc1 [compound 396],3 (Class 3: The value of percent of control at 10^−7 M was more than 60% or the value of IC50 was more than 200 nM.)
18,CCCCCc1ccc(CN[C@H]2CC[C@@H](Nc3cc(N(C)C)nc(C)n3)CC2)cc1 [compound 397],3 (Class 3: The value of percent of control at 10^−7 M was more than 60% or the value of IC50 was more than 200 nM.)
19,Cc1nc(N[C@H]2CC[C@@H](NCC3CCCC3)CC2)cc(N(C)C)n1 [compound 398],3 (Class 3: The value of percent of control at 10^−7 M was more than 60% or the value of IC50 was more than 200 nM.)
20,CCCCCCCCCc1ccc(CN[C@H]2CC[C@@H](Nc3cc(N(C)C)nc(C)n3)CC2)cc1 [compound 399],3 (Class 3: The value of percent of control at 10^−7 M was more than 60% or the value of IC50 was more than 200 nM.)
21,Cc1nc(N[C@H]2CC[C@@H](NCCOc3ccc(C(C)(C)C)cc3)CC2)cc(N(C)C)n1 [compound 400],3 (Class 3: The value of percent of control at 10^−7 M was more than 60% or the value of IC50 was more than 200 nM.)
